The record followed here is publication PMC9455338, “Design, synthesis, and biological evaluation of potent FAK-degrading PROTACs” (Journal of Enzyme Inhibition and Medicinal Chemistry, 2022).

In assay [1] the target is T1, FAK (Homo sapiens, UniProt Q05397).
T1 construct: gene PTK2
Nature of the assay: HTRF kinase assay, % inhibition at […]. The format is biochemical. A general note: Time-resolved FRET reads energy transfer from a long-lived donor to a nearby acceptor.

The target in assay [2] is T1, FAK. Nature of the assay: biochemical. Also on record: HTRF KinEASE-TK kinase assay with purified FAK, inhibition of substrate phosphorylation. Conditions: for inhibition at 0.5 µM: read-out: FAK inhibition (%)^a / 0.5 μM; for inhibition at 0.1 µM: read-out: FAK inhibition (%)^a / 0.1 μM. On the procedure:
The FAK kinase assay was performed using the HTRF® KinEASE™-TK kit (Cisbio Bioassays, France) in white 384-well small volume plates with a total working volume of 20 μL. Purified FAK enzyme was purchased from Carna Biosciences (Japan). Compounds were diluted step-by-step from a concentrated stock of 8 mM in 100% DMSO and with serial kinase reaction buffer dilutions. The IC50 measurements were performed in replicates. […] The assay plates were incubated at 30 °C for 50 min and reactions were terminated by adding 10 μL of mix 2 (Sa-XL665 + TK-Antibody-Cryptate). After a final incubation (60 min at room temperature), HTRF signals were obtained by reading plates using an Infinite® F500 microplate reader (Tecan, Switzerland). […] For IC50 measurements, values were normalised and fitted with Graphpad prism 8.3.0.

The target in assay [3] is T1, FAK. Nature of the assay: HTRF KinEASE-TK kinase assay, purified FAK (Carna).

T1 sequence (Q05397 2-1052): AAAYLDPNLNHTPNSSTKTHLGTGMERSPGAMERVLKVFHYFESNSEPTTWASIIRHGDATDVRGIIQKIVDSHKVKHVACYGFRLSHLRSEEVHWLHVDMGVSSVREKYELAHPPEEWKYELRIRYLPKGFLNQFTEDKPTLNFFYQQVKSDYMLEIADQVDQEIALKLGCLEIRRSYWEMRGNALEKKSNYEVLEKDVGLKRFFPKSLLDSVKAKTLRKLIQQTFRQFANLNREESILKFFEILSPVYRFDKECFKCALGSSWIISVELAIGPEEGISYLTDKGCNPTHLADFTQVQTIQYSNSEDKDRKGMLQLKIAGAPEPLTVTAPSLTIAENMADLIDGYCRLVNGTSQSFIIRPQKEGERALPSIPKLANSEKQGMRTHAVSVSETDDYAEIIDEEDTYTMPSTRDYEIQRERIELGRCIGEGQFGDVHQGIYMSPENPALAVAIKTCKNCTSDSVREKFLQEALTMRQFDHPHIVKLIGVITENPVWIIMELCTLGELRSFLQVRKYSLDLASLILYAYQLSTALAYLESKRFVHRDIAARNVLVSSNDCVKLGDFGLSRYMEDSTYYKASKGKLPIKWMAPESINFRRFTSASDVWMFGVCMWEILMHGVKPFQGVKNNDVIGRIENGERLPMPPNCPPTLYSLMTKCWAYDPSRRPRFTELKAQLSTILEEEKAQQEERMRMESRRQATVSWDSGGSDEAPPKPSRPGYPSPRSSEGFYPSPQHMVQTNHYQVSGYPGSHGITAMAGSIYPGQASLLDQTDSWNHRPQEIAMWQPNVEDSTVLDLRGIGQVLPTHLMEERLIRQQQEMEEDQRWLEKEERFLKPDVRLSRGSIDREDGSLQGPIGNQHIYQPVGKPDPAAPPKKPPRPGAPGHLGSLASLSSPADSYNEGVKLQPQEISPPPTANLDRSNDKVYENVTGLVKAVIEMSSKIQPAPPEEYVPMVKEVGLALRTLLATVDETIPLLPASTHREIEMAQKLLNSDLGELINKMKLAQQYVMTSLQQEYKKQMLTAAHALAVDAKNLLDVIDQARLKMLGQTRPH

With `CN(c1ccccc1CNc1nc(Nc2ccc(N3CCN(CCCCC(=O)Nc4cccc5c4C(=O)N(C4CCC(=O)NC4=O)C5=O)CC3)cc2)ncc1C(F)(F)F)S(C)(=O)=O` (stereo not shown) [A5], the inhibition at 0.1 µM in assay [1] was determined as 91.2%. In addition, in assay [2], the inhibition at 0.5 µM was determined as 98%.

As for `CN(c1ccccc1CNc1nc(Nc2ccc(N3CCN(CCCCCCC(=O)NCCNc4cccc5c4C(=O)N(C4CCC(=O)NC4=O)C5=O)CC3)cc2)ncc1C(F)(F)F)S(C)(=O)=O` (stereo not shown) [A13, N-(2-{[2–(2,6-Dioxopiperidin-3-yl)-1,3-dioxoisoindolin-4-yl]amino}ethyl)-7–(4 -{4-[(4-{[2-(N-methylmethylsulfonamido)benzyl]amino}-5-(trifluoromethyl)pyrimidin-2-yl)amino]phenyl}piperazine-1-yl)heptamide], in assay [2], the inhibition at 0.1 µM was determined as 84.4% and the inhibition at 0.5 µM stood at 96.9%. The concentration for half-maximal inhibition (IC50) (as a rule, the concentration needed to halve the response being measured) in assay [3] is 26.4 nM.

With `CN(c1ccccc1CNc1nc(Nc2ccc(N3CCN(CCCCCCC(=O)Nc4cccc5c4C(=O)N(C4CCC(=O)NC4=O)C5=O)CC3)cc2)ncc1C(F)(F)F)S(C)(=O)=O` (stereo not shown) [A7, N-[2–(2,6-Dioxopiperidin-3-yl)-1,3-dioxoisoindol-4-yl]-7–(4-{4-[(4-{[2-(N-Methylmethylsulfonamido)benzyl]amino}-5-(trifluoromethyl)pyrimidin-2-yl)amino]phenyl}piperazin-1-yl)heptamide], the inhibition at 0.1 µM in assay [1] worked out at 87.5%. In addition, the inhibition at 0.5 µM in assay [2] is 95.4%.

`CN(c1ccccc1CNc1nc(Nc2ccc(N3CCN(CCCOCCC(=O)NCCNc4cccc5c4C(=O)N(C4CCC(=O)NC4=O)C5=O)CC3)cc2)ncc1C(F)(F)F)S(C)(=O)=O` (stereo not shown) [A2, N-(2-{[2–(2,6-dioxopiperidin-3-yl)-1,3-dioxoisoindolin-4-yl]amino}ethyl)-3-[3–(4-{4-[(4-{[2-(N-methylmethylsulfonamido)benzyl]amino}-5-(trifluoromethyl)pyrimidin-2-yl)amino]phenyl}piperazin-1-yl)propoxy]propanamide] yielded an inhibition at 0.1 µM in assay [1] of 89%. In addition, the inhibition at 0.5 µM in assay [2] amounted to 98.8%.

In assay [1], `CN(c1ccccc1CNc1nc(Nc2ccc(N3CCN(CCCCC(=O)NCCNc4cccc5c4C(=O)N(C4CCC(=O)NC4=O)C5=O)CC3)cc2)ncc1C(F)(F)F)S(C)(=O)=O` (stereo not shown) [A11, N-(2-{[2–(2,6-Dioxopiperidin-3-yl)-1,3-dioxoisoindolin-4-yl]amino}ethyl)-5–(4 –{4-[(4-{[2-(N-Methylmethylsulfonamido)benzyl]amino}-5-(trifluoromethyl)pyrimidin-2-yl)amino]phenyl}piperazine-1-yl)pentanamide] had an inhibition at 0.1 µM of 93.5%. Besides, the inhibition at 0.5 µM in assay [2] was found to be 98.6%.

Consider `CN(c1ccccc1CNc1nc(Nc2ccc(N3CCN(CCCCCC(=O)Nc4cccc5c4C(=O)N(C4CCC(=O)NC4=O)C5=O)CC3)cc2)ncc1C(F)(F)F)S(C)(=O)=O` (stereo not shown) [A6, N-(2–(2,6-Dioxopiperidin-3-yl)-1,3-dioxoisoindol-4-yl)-6–(4-{4-[(4-{[2-(N-Methylmethylsulfonamido)benzyl]amino}-5-(trifluoromethyl)pyrimidin-2-yl)amino]phenyl}piperazin-1-yl)hexanamide], for which, in assay [2], the inhibition at 0.1 µM was 88.2% and the inhibition at 0.5 µM came out at 96.8%. 24.4 nM corresponded to half-maximal inhibition in assay [3] (IC50).

Turning to `CN(c1ccccc1CNc1nc(Nc2ccc(N3CCN(CCCCCC(=O)NCCNc4cccc5c4C(=O)N(C4CCC(=O)NC4=O)C5=O)CC3)cc2)ncc1C(F)(F)F)S(C)(=O)=O` (stereo not shown) [A12, N-(2-{[2–(2,6-Dioxopiperidin-3-yl)-1,3-dioxoisoindolin-4-yl]amino}ethyl)-6–(4-{4-[(4-{[2-(N-methylmethylsulfonamido)benzyl]amino}-5-(trifluoromethyl)pyrimidin-2-yl)amino]phenyl}piperazine-1-yl)hexanamide], in assay [1], the inhibition at 0.1 µM came to 86.1%. Further, the inhibition at 0.5 µM in assay [2] turned out to be 98%.

With `CN(c1ccccc1CNc1nc(Nc2ccc(N3CCN(CCOCCOCCNC(=O)CNc4cccc5c4C(=O)N(C4CCC(=O)NC4=O)C5=O)CC3)cc2)ncc1C(F)(F)F)S(C)(=O)=O` (stereo not shown) [A1, 2-{[2–(2,6-Dioxopiperidin-3-yl)-1,3-dioxoisoindolin-4-yl]amino}-N-(2-{2-[2–(4-{4-[(4-{[2-(N-methylmethylsulfonamido)benzyl]amino}-5-(trifluoromethyl)pyrimidin-2-yl)amino]phenyl}piperazin-1-yl)ethoxy]ethoxy}ethyl)acetamide], in assay [2], the inhibition at 0.1 µM stood at 94.9% and the inhibition at 0.5 µM came to 98%. The IC50 in assay [3] came out at 22.3 nM.
